“And” between values parts separate entries of the source, which are not always exact repeats. Equal values may be shown once. “Also recorded” adds a separate entry of the source. Read-outs that look alike come from different tables or passages of the source. Where a SMILES comes first, the peptide text is derived from it. The star is where a group is joined. Biotin = O=C1N[C@H]2[C@H](CS[C@H]2CCCCC(=O)*)N1
Tests used:
[1] = Filtration test (0.2 μm filter); type: physicochemical; conditions: for effect on the presence of fibrils in NFL-TBS40-63 formulation: amino acid added instead of alanine
Experimental: Several formulations (containing NFL-TBS40-63 and various buffers, solubilizing and osmolarity adjusting agents) were tested for their aptitude to pass a 0.2 μm filter. […] The ease of filtration (manual pressure required) was recorded.
For grade 1 formulations, further filtration tests were performed with higher volumes of the test formulation, and a deliberately small filter area size, e.g. a 25 mm diameter with pores of 0.2 μm with 100 ml of the test formulation.

[2] = Dynamic Light Scattering (DLS); type: physicochemical
Experimental: FIG. 4A-C: DLS graphs showing the effect of the heating of the formulation containing L-alanine at different temperatures before adding NFL-TBS40-63 peptide followed by mixing for 1 h30 at A. room temperature (RT); B. 30-35° C., and C. 40-45° C. […] Low attenuator values (e.g. ≤8) indicate that there were substantially more particles in the sample.
Dynamic Light Scattering (DLS) measurements were performed on the several formulations of grade 1 and 2 using a Malvern Nano-S instrument. Although the technique is not quantitative, it provided important information on the relative size of the objects (fibrils) present in the various formulations, throughout out the process of dissolution.
The attenuator value also gives a measure of the quantity of particles present: the higher the attenuator value, the less particles present.

[3] = system: b.End3 murine endothelial cells; test: MTS viability assay (mitochondrial activity); type: cell-based; conditions: 72 hours, peptide in Clinic vehicle F28C1 compared with Glucose 5%
Experimental: (§1) Cells were seeded in 96-well plates at 1,000 per well for b.End3 murine endothelial cells and F98 rat GBM cells, and 5,000 cells and U-87 MG human GBM cells, and incubated for 24 hours at 37° C. and 5% CO2. Then, the culture media was removed and cells were treated for 72 hours at 37° C. and 5% CO2 with increasing concentrations (25, 50, 100 and 200 μM) of GC01-G5% (NFL-TBS40-63 peptide (GC01) partially solubilized with 5% glucose) or GC01.1 (NFL-TBS40-63 peptide (GC01) fully solubilized in the formulation of the invention F28C1), or with 1 μg/mL of colchicine, or the 5% glucose solution and the Clinic vehicle, diluted in fresh media. Cell viability was measured using the MTS viability assay (ab197010-Abcam; Paris, France). After rinsing the cells with 1×DPBS (Dulbecco's Phosphate Buffered Saline-Gibco; Dardilly, France), 20 μL of MTS reagent was added to each well for 2 hours. The number of living cells is directly proportional to the absorbance measured by the amount of light absorbance at 490 nm in a SpectraMax M2 multi-scanning spectrophotometer (Molecular Devices; San Jose, California, USA).

U-87 MG human GBM cells [4] = test: MTS viability assay (mitochondrial activity); type: cell-based; conditions: 72 hours, peptide in Clinic vehicle F28C1 compared with Glucose 5%
Experimental: as §1

[5] = system: neuroblastoma and glioblastoma cell lines; conditions: WO 2011/073207 and Bocquet et al. (2009); cited from earlier work
[6] = Transmission Electron Microscopy (TEM) of fibrils; type: physicochemical
Experimental: Transmission Electron Microscopy imaging of various formulations was performed using a Jeol JEM-1400 instrument. Sample preparation was as follows: one drop of the liquid to be examined was deposited onto a TEM gird and allowed to settle for ~1 minute. Excess liquid was then absorbed with blotting paper, and one drop of a 2% solution of uranyl acetate was deposited on the grid. After ~2 minutes the excess solution was absorbed with blotting paper, and the grid was rinsed twice, using with a drop of water each time. The grid was then dried, prior to examination in the TEM. This technique allowed visualization of the fibrils of NFL-TBS40-63 peptide in the various formulations and in water.

U-87 MG cells = test: Calcein/PI flow cytometry after passage through the endothelial monolayer; type: cell-based, human; conditions: Transwell conditions + U-87 MG cells, 24 h treatment + 48 hours
Experimental: After 24 hours of treatment, the endothelial cell monolayer was removed, and the U-87 MG cells were incubated at 37° C. for an additional 48 hours. At this time, U-87 MG cells were collected as previously described in section 1.4. To evaluate cell viability were stained with 1 μM of Calcein green (Thermo Fisher Scientific; Massachusetts, USA) for 30 min at room temperature in the dark. Then re-suspended in Propidium Iodide and analyzed by flow cytometry. 10,000 cells were measured for each experiment.

[7] = system: U-87 MG cells implanted in the brains of BALB/c Nude mice; test: In vivo U-87 MG brain tumor in nude mice, tolerance and MALDI-TOF imaging; conditions: intravenous injection in the formulation of the invention, 1 hour after the final injection
Experimental: Seven-week-old female Balb/c nude mice (Janvier, France) were housed at the university animal facility (Service Commun d'Animalerie Hospitalo-Universitaire—Université d'Angers, France). Animals had free access to water and food throughout the experiment and their behavior and body weight were constantly monitored. All procedures involving animals, were conducted in accordance with protocols approved by ethical committee of the University of Angers and the regional ethics committee on animal experimentations.
Mice were anesthetized by intraperitoneal injection of a mixture of ketamine 10% (80 mg/kg) and xylazine 2% (10 mg/kg). […] The injection coordinates were 2.1 mm lateral, 0.5 mm posterior from the bregma and 2.5 mm deep from the outer border of the cranium. […] Animals were sacrificed 1 hour after the last injection, and brains were removed and frozen in nitrogen vapors.
The MALDI-TOF MS analysis was performed on a Bruker BIFLEX III mass spectrometer (Bruker Daltonics; Germany) equipped with a nitrogen laser (337 nm wavelength, 3 ns laser pulse duration) with reflection and in the positive ion mode. The MS data were acquired over a mass range of m/z 2714 Da with pixels of 100 μm diameter but the capturing area is of 40 μm per pixel. Data have been normalized by Root Mean Square and the image has been smoothed by reducing background noise. […]

[8] = Scanning Electron Microscopy (SEM) of dry powder; type: physicochemical; conditions: Lot AW18189D and Lot HF44004B
Experimental: Scanning Electron Microscopy of NFL-TBS40-63 peptide dry powder was performed using an Jeol 6301F instrument. In brief, NFL-TBS40-63 peptide was lightly sprinkled onto double sided tape fixed to a SEM stub. Excess powder was shaken/tapped off, so as to leave a very thin layer of powder on the stub, which was then sputter coated with an ~10 nm layer of platinum, prior to observation. This technique allows visualization of the fibrils in the dry NFL-TBS40-63 peptide powder.

[9] = Clarity test - degree of opalescence; type: physicochemical
Experimental: For preparations where the NFL-TBS40-63 peptide appeared to be visually dissolved (following the visual dissolution test), the clarity (opalescence) of the preparation was assessed, via visual inspection after placing the colourless glass tube close to a white light source. The degree of opalescence was a very useful predictor of a given preparation's ability to pass or block a sterilizing filter.

[10] = system: b.End3 murine endothelial cells; test: Immunocytochemistry of tubulin; type: cell-based; conditions: 100 μM, 48 hours
Experimental: (§2) To visualize the treatment internalization, 20,000 and 35,000 cells per well for b.End3 murine endothelial cells and U-87 MG human GBM cells, respectively, were seeded in 24-well plates containing one coverslip previously coated with poly (d) lysine 0.1 mg/ml per well and washed three times with 1×DPBS (Sigma-Aldrich; Saint-Louis, USA) and incubated for 24 hours at 37° C. and 5% CO2. Then, the cells were incubated with 100 μM of GC01-G5% (NFL-TBS40-63 peptide (GC01) peptide partially solubilized with 5% glucose) or 100 μM of GC01.1 (NFL-TBS40-63 peptide (GC01) fully solubilized in the formulation of the invention F28C1), or with 1 μg/mL of colchicine for 48 hours at 37° C. At the end of the incubation time, cells were washed three times with 1×DPBS and fixed with 4% paraformaldehyde (15714-Delta microscopies; Mauressac, France) for 10 min at room temperature. Then, treated cells were permeabilized with 0.2% triton X-100 (T9284—Sigma-Aldrich; Saint-Louis, USA) for 10 min, and blocked with 5% bovine serum albumin (A7030—Sigma-Aldrich; Saint-Louis, USA) for 45 min at room temperature. Cells were co-incubated with a mouse anti-a tubulin (ab7750-Abcam; Paris, France) and a rabbit anti-βIII tubulin antibodies at 1:250 (T2200—Sigma-Aldrich; Saint-Louis, USA) overnight at 4° C. […]

U-87 MG human GBM cells [11] = test: Immunocytochemistry of tubulin; type: cell-based; conditions: 100 μM, 48 hours
Experimental: as §2

[12] = Visual dissolution test / solubility of the peptide; type: physicochemical

In the case of `NC(=O)CC[C@H](N)C(=O)O` [L-glutamine], the “effect on the presence of fibrils in NFL-TBS40-63 formulation” value (“effect on the presence of fibrils” for short) [1] is reported as “did not have any positive effect”.

For `CC[C@H](C)[C@H](N)C(=O)O` [L-isoleucine], the “effect on the presence of fibrils” value [1] was “did not have any positive effect”.

With `CC(C)C[C@H](N)C(=O)O` [L-leucine] the “effect on the presence of fibrils” value [1] was “did not have any positive effect”.

With `CSCC[C@H](N)C(=O)O` [L-methionine] the “effect on the presence of fibrils” value [1] was “did not have any positive effect”.

In the case of `CC(C)[C@H](N)C(=O)O` [L-valine], the “effect on the presence of fibrils” value [1] is reported as “did not have any positive effect”.

With `CC(C)C[C@H](NC(=O)[C@H](CO)NC(=O)[C@H](CO)NC(=O)[C@H](CO)NC(=O)[C@@H](NC(=O)[C@@H]1CCCN1C(=O)[C@H](C)NC(=O)[C@H](CO)NC(=O)[C@H](Cc1ccc(O)cc1)NC(=O)[C@H](CO)NC(=O)[C@H](CO)NC(=O)[C@H](Cc1ccc(O)cc1)NC(=O)CCCC[C@@H]1SC[C@@H]2NC(=O)N[C@@H]21)C(C)C)C(=O)N[C@@H](CO)C(=O)N[C@H](C(=O)N[C@@H](CCCNC(=N)N)C(=O)N[C@@H](CCCNC(=N)N)C(=O)N[C@@H](CO)C(=O)N[C@@H](Cc1ccc(O)cc1)C(=O)N[C@@H](CO)C(=O)N[C@@H](CO)C(=O)N[C@@H](CO)C(=O)N[C@@H](CO)C(=O)NCC(=O)N[C@@H](CO)C(N)=O)C(C)C` [NFL-TBS40-63 peptide] (Biotin-YSSYSAPVSSSLSVRRSYSSSSGS-NH2; N-terminus and C-terminus assumed) the “DLS single peak, particle size” value ([2]; micronized powder in F28C1, 1.5 hours mixing at ambient temperature (20° C.), prior to pre-filtration) was “around 300 nm”, the DLS attenuator value ([2]; solution F28C heated to 40-45° C. before adding the peptide, mixing 1h30) was 10 and the “cytotoxicity profile (cell viability, MTS)” value [3] was “retains its properties”. For the same compound, the “cytotoxicity profile (cell viability, MTS)” value (U-87 MG human GBM cells [4]) was “retains its properties”, the “inhibition of proliferation in vitro” value [5] was “able to inhibit the proliferation” and the “number and size of fibrils by TEM” value ([6]; composition containing 50 mM of L-alanine and 1 mg/mL peptide) was “significantly reduced; also recorded: virtually no fibrils were visible”. For the same compound, the “fibrillar structures by TEM” value ([6]; in water, 1 mg/mL and 0.27 mg/ml) was “fibrillar structure; also recorded: fibril structure”, the “length of sub-visible fibrillar structures” value ([6]; self-association) was ≤ 2 μm and the “percentage of dead cells” value (U-87 MG cells; listed as Biot-NFL) was 16.6±5.4%. For the same compound, the “percentage of dead cells” value (U-87 MG cells; listed as GC01) was 30.1±7.9%, the “peptide in the tumor by MALDI-TOF imaging” value [7] was “accumulation” and the “passage of 0.2 μm sterilizing filter” value ([1]; 1 mg/ml in water) was “very quickly block”. The “behaviour of pre-filter and sterilizing filters” value ([1]; 3 mg/ml in G5% (5% glucose in water for injection)) was “tended to clog up quite quickly”, the filter grade ([1]; F28C1 with 25 mM L-alanine, 1.5 mg/mL peptide, 1 mL, 13 mm 0.2 μm filter) was 2 and the filter grade ([1]; F28C1 with 50 mM L-alanine, 1.5 mg/ml peptide, 5 mL, 13 mm 0.2 μm filter) was 1 to 2. The filter grade ([1]; F28C1 with 112 mM L-alanine, 1.5 mg/ml peptide, 1 mL, 13 mm 0.2 μm filter) was 2, the filter grade ([1]; F28C1 with 225 mM L-alanine, 1.5 mg/ml peptide, 1 mL, 13 mm 0.2 μm filter) was 2 to 3 and 3 and the filter grade ([1]; F28C1 with 670 mM L-alanine, 0.5 mg/mL peptide, 13 mm 0.2 μm filter) was 3. For the same compound, the “sterilizing filtration through 0.2 μm” value ([1]; micronized powder in F28C1, after 0.45 μm pre-filtration) was “successful”, the filter grade ([1]; with no alanine) was 3 and the “structures in dry powder by SEM” value [8] was “fibril-like structures”. For the same compound, the “opalescence of the solution” value ([9]; F28C1 with 25 mM L-alanine, 1.5 mg/mL peptide) was “slightly opalescent”, the “opalescence of the solution” value ([9]; F28C1 with 50 mM L-alanine, 1.5 mg/ml peptide) was “very slightly opalescent” and the “opalescence of the solution” value ([9]; F28C1 with 112 mM L-alanine, 1.5 mg/ml peptide) was “slightly opalescent”. The “opalescence of the solution” value ([9]; F28C1 with 225 mM L-alanine, 1.5 mg/ml peptide) was “slightly opalescent”, the “opalescence of the solution” value ([9]; F28C1 with 670 mM L-alanine, 0.5 mg/mL peptide) was “slightly opalescent” and the “effect on tubulin (immunostaining)” value [10] was “alteration of tubulin”. The “effect on tubulin (immunostaining)” value (U-87 MG human GBM cells [11]) was “alteration of tubulin”, the “dissolution of the peptide” value ([12]; 3 mg/ml in G5% (5% glucose in water for injection), even after heating 1.5 h at 40 to 45° C.) was “less well dissolved” and the solubility at 2 min ([12]; 50 mM glutamine and 50 mM arginine, read-out: solubility) was < 0.8 mg/mL. The precipitation ([12]; in the presence of sodium or potassium ions) was “tends to irreversibly precipitate”, the solubility at 2 min ([12]; in water, read-out: intrinsic aqueous solubility) was < 2.5 mg/mL and the “solubility in commonly used parenteral buffer systems” value ([12]; nearly all commonly used parenteral buffer systems) was “insoluble”.

Reference: patent publication US20260240768A1, “PHARMACEUTICAL COMPOSITION COMPRISING NFL-TBS40-63 PEPTIDE, VARIANTS OR SALTS THEREOF AND ALANINE” (GLIOCURE, priority 2022, published 2026)
